Measured values from patent US12187672B2, “1,2-diacylglycerol compound, preparation method therefor, and immunomodulator containing same as active ingredient” (ENZYCHEM LIFESCIENCES CORPORATION, priority 2018, dated 2025).

Columns and labels:
HL-60 cells = experiment: Migration of HL-60 cell line toward THP-1 culture supernatant (transmigration assay); assay type: cell-based, human; conditions: supernatant of THP-1 cells treated with sample 100 μg/ml 1 h, then Gemcitabine 2 μg/ml 24 h
Summary of the method: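 THP-1 cells pretreated 1 h with compounds, then stimulated with gemcitabine (2 μg/ml) for 24 h; supernatant placed in lower chamber. HL-60 cells (5×10^4/chamber) migrated through laminin I-coated upper chamber; migrated cells quantified by Calcein-AM fluorescence converted to cell number.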

IL-6 = experiment: LPS-induced IL-6 secretion reduction in RAW264.7 cells (ELISA); assay type: cell-based, mouse; conditions: for IL-6 concentration (average ± deviation): sample 100 μg/ml 1 h, then LPS 1 μg/ml 24 h
Summary of the method: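 Mouse RAW264.7 macrophages in DMEM/10% FBS were plated at 5×10^4 cells/ml, rested for 15 h, treated with compound for 1 h, then stimulated with 1 μg/ml LPS for 24 h at 37 °C. IL-6 in the supernatant was measured by sandwich ELISA (HRP, OD 450 nm) and expressed as reduction rate or concentration.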

STAT3 = STAT3 activity, pGL4.47 SIE luciferase reporter in LPS-treated RAW264.7 cells; assay type: cell-based, mouse; conditions: sample 100 μg/ml 1 h, then LPS 1 μg/ml 18 h
Protocol: pGL4.47 [luc2P/SIE/Hygro] vector containing the sis-Inducible Element that binds to STAT3 was injected into RAW264.7 cells to confirm the degree of STAT3 activity. In DMEM (Hyclone, Thermo Scientific) medium to which 10% Fetal Bovine Serum was added, RAW264.7 cells were cultured at a concentration of 1×10^5 cells/ml, and maintained in a 5% CO2 humidified incubator at 37° C. The cultured RAW264.7 cells were inoculated into a 48 well plate by 1×10^5 cells/ml and stabilized for 18 hours. Thereafter, the pGL4.47 [luc2P/SIE/Hygro] vector containing sis-Inducible Element was mixed with Attractene to induce complex formation at room temperature for 15 minutes. This complex was treated with the cells and then further incubated for 18 hours. Thereafter, the culture solution was treated with a glycerol derivative compounds of the type shown in Table 5 below for 1 hour and then LPS (1 μg/ml) was treated and further incubated for 18 hours for STAT3 activity. Thereafter, the culture supernatant was removed for each well, and the remaining cells were lysed with a cell lysis buffer, and then cell lysate was recovered. 90 μl of luciferase reagent was mixed with 10 μl of the recovered cell lysate, and the degree of fluorescence was confirmed using a luminometer.

IL-4 = experiment: PKC activator-induced IL-4 secretion reduction in EL-4 cells (ELISA); assay type: cell-based, mouse; conditions: for IL-4 concentration (average ± deviation): sample 100 μg/ml 2 h, then PKC activator 18 h; for decrease of IL-4 secretion/expression: PKC activator-treated, 100 μg/ml
Summary of the method: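 Mouse EL-4 lymphoma cells in DMEM/10% FBS pretreated 2 h with compound, then stimulated with 0.5 μg/ml PKC activator (PMA type) for 18 h at 37 °C. Secreted IL-4 in supernatant quantified by sandwich ELISA (OD 450 nm) and expressed as reduction rate.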

Row | Structure (SMILES) | Number of HL-60 cells migrated through Transwell (HL-60 cells) | decrease of IL-6 secretion/expression compared to the LPS-treated group (IL-6; 100 μg/ml) | IL-6 concentration (average ± deviation) (IL-6; Table 2) | IL-6 concentration (average ± deviation) (IL-6; Table 3) | STAT3 activity_Luciferase activity (average ± deviation) (STAT3) | IL-4 concentration (average ± deviation) (IL-4; Table 11) | IL-4 concentration (average ± deviation) (IL-4; Table 12) | decrease of IL-4 secretion/expression (IL-4)
1 | CCCCC/C=C\C/C=C\CCCCCCCC(=O)OC(COC(C)=O)COC(=O)CCCCCCCCCCCCCCC (stereo not shown) [EC-18, 1-palmitoyl-2-linoleoyl-3-acetylglycerol, reference compound] | 2697.2 Cell Number | about 30% | 194 ± 11 pg/µL | 0.491 ± 0.063 pg/µL | 491.5 ± 41.7 | 662.4 ± 42.4 pg/µL | 429.2 ± 7.0 pg/µL | 
2 | CCCCC/C=C\C/C=C\CCCCCCCC(=O)OC(COC(=O)CCCCCCCCCCCCCCC)COC(C)C (stereo not shown) [EC_A21] | 1986.3 Cell Number |  | 176 ± 2 pg/µL |  |  | 488.8 ± 46.2 pg/µL |  | 
3 | CCCCC/C=C\C/C=C\CCCCCCCC(=O)OC(COC(=O)CC)COC(=O)CCCCCCCCCCCCCCC (stereo not shown) [EC_A78] | 23396.6 Cell Number |  |  | 0.708 ± 0.086 pg/µL | 912.5 ± 214.2 |  | 557 ± 11.5 pg/µL | 
4 | CCCCC/C=C\C/C=C\CCCCCCCC(=O)OC(COC(=O)CCCCCCCCCCCCCCC)COC(=O)C1CC1 (stereo not shown) [EC_A79] | 12527.5 Cell Number |  |  | 0.652 ± 0.145 pg/µL | 1183.5 ± 51.6 |  | 527 ± 17.9 pg/µL | 
5 | CCCCC/C=C\C/C=C\CCCCCCCC(=O)OC(COC(=O)CCCCCC)COC(=O)CCCCCCCCCCCCCCC (stereo not shown) [EC_A83] | 7316.6 Cell Number |  |  | 0.658 ± 0.070 pg/µL | 510.2 ± 27.2 |  | 637.9 ± 14.1 pg/µL | 
6 | CCCCC/C=C\C/C=C\CCCCCCCC(=O)OC(COC(=O)CCC)COC(=O)CCCCCCC (stereo not shown) [EC_A85] | 7687.7 Cell Number |  |  | 0.741 ± 0.071 pg/µL | 1126.7 ± 32.1 |  | 485.1 ± 19.2 pg/µL | about 20%
7 | CCCCC/C=C\C/C=C\CCCCCCCC(=O)OC(COC(=O)CCCC)COC(=O)CCCCCCC (stereo not shown) [EC_A86] | 18542.0 Cell Number |  |  | 0.796 ± 0.045 pg/µL | 866.2 ± 15.2 |  | 476.0 ± 2.5 pg/µL | about 20%
8 | CCCCC/C=C\C/C=C\CCCCCCCC(=O)OC(COC(=O)CC)COC(=O)CCCCCCC (stereo not shown) [EC_A87] | 7198.0 Cell Number |  |  | 0.705 ± 0.158 pg/µL | 1312 ± 34.6 |  | 511.0 ± 0.6 pg/µL | about 20%
9 | CCCCC/C=C\C/C=C\CCCCCCCC(=O)OC(COC(=O)CCCCCCC)COC(=O)C(C)C (stereo not shown) [EC_A88] | 17552.5 Cell Number |  |  | 0.792 ± 0.086 pg/µL | 1171.5 ± 146.3 |  | 654.7 ± 0.6 pg/µL | 
10 | CCCCCC=CCC=CCCCCCCCC(=O)OC(COC(=O)CCCCCCC)COC(=O)C(C)(C)C (stereo not shown) [EC_A89] | 6969.9 Cell Number |  |  | 0.736 ± 0.097 pg/µL | 1087.7 ± 257.7 |  | 620.1 ± 22.4 pg/µL | 
11 | CCCCC/C=C\C/C=C\CCCCCCCC(=O)OC(COC(=O)CC)COC(=O)CCCCCCCCCCC (stereo not shown) [EC_A91] | 9429.8 Cell Number |  |  | 0.752 ± 0.068 pg/µL | 746.5 ± 26.1 |  | 446.0 ± 16.7 pg/µL | about 20%
12 | CCCCC/C=C\C/C=C\CCCCCCCC(=O)OC(COC(=O)CCC)COC(=O)CCCCCCCCCCC (stereo not shown) [EC_A92] | 2891.6 Cell Number |  |  | 0.800 ± 0.038 pg/µL | 820 ± 448.3 |  | 498.3 ± 45.6 pg/µL | about 20%
13 | CCCCC/C=C\C/C=C\CCCCCCCC(=O)OC(COC(=O)CCCC)COC(=O)CCCCCCCCCCC (stereo not shown) [EC_A93] | 6828.6 Cell Number |  |  | 0.765 ± 0.055 pg/µL | 536.2 ± 222.3 |  | 507.9 ± 3.85 pg/µL | about 20%
14 | CCCCC/C=C\C/C=C\CCCCCCCC(=O)OC(COC(=O)CCCCCCCCCCC)COC(=O)C(C)CC (stereo not shown) [EC_A96] | 15110.8 Cell Number |  |  | 0.788 ± 0.006 pg/µL | 1136.7 ± 63.9 |  | 582.9 ± 17.3 pg/µL | 
15 | CCCCC/C=C\C/C=C\CCCCCCCC(=O)OC(COC(=O)CC)COC(=O)CCCCCCCCC (stereo not shown) [EC_A97] | 7440.6 Cell Number |  |  | 0.745 ± 0.015 pg/µL | 573.2 ± 146.7 |  | 541.5 ± 20.5 pg/µL | 
16 | CCCCC/C=C\C/C=C\CCCCCCCC(=O)OC(COC(=O)CCC)COC(=O)CCCCCCCCC (stereo not shown) [EC_A98] | 11056.8 Cell Number |  |  | 0.619 ± 0.036 pg/µL | 370.7 ± 35.0 |  | 584.2 ± 50.1 pg/µL | 
17 | CCCCC/C=C\C/C=C\CCCCCCCC(=O)OC(COC(=O)CCCC)COC(=O)CCCCCCCCC (stereo not shown) [EC_A99] | 7164.9 Cell Number |  |  | 0.666 ± 0.075 pg/µL | 353.2 ± 83.0 |  | 553.3 ± 39.8 pg/µL | 
18 | CCCCC/C=C\C/C=C\CCCCCCCC(=O)OC(COC(=O)CCCCCCCCC)COC(=O)C(C)C (stereo not shown) [EC_A100] | 8947.2 Cell Number |  |  | 0.749 ± 0.054 pg/µL | 572.2 ± 60.4 |  | 539.7 ± 6.4 pg/µL | 
19 | CCCCC/C=C\C/C=C\CCCCCCCC(=O)OC(COC(=O)CCCCCCCCC)COC(=O)C(C)(C)C (stereo not shown) [EC_A101] | 4848.9 Cell Number |  |  | 0.645 ± 0.057 pg/µL | 581.7 ± 8.1 |  | 634.7 ± 3.21 pg/µL | 
20 | CCCCC/C=C\C/C=C\CCCCCCCC(=O)OC(COC(=O)CCCCCCCCC)COC(=O)C(C)CC (stereo not shown) [EC_A102] | 8091.5 Cell Number |  |  | 0.738 ± 0.070 pg/µL | 602 ± 11.3 |  | 775.1 ± 11.5 pg/µL | 
